Experimental data: US12441706B2, “Protein degradation agent compound preparation method and application” (SHANGHAI JEMINCARE PHARMACEUTICALS CO., LTD., priority 2019, dated 2025)
pIC50: −log10 of the molar value. Where two headings read alike, the source gives them in different places.

What was measured:
LNcap FGC cells = assay: Inhibition of proliferation of LNcap FGC cells (Cell Titer Glo, 6 days); assay type: cell-based; details: Homo sapiens, 144 h
Description: Tumor cell line LNcap FGC (ATCC catalog number CRL-1740) was cultured in RPMI 1640 (Gibco catalog number 11875-093) and DMEM (Gibco catalog number. 11965-092) medium containing 10% FBS (Gibco catalog number 10099-141C), respectively.
(§1) LNcap FGC cells were inoculated in a 384-well plate (Perkin Elmer catalog number 6007460) at a cell density of 400 cells/well in a volume of 20 μL/well and incubated overnight in a carbon dioxide incubator (Thermo). The prepared compound solutions of different concentrations were added in a volume of 5 μL/well. The corresponding vehicle control was set at the same time. After being cultured in the incubator for 6 days, the cell plate and the contents were equilibrated to room temperature, and 25 μL of Cell Titer Glor (Promega catalog number G7573) was added to each well, shook and mixed well, incubated in dark for 10-30 minutes, and the signal values were detected with Envision microplate reader (PerkinElmer).
(§2) The percentage inhibition rate of compound-treated wells was calculated from the vehicle control wells on the plate, and the percentage inhibition rate data corresponding to different concentrations were fitted by GraphPad prism, and the IC50 values were calculated by 4-parameter nonlinear logic formula.

VCap cells = assay: Inhibition of proliferation of VCap cells (Cell Titer Glo, 6 days); assay type: cell-based; details: Homo sapiens, 144 h
Description: Tumor cell line VCap FGC (ATCC catalog number CRL-2876) was cultured in DMEM (Gibco catalog number 11965-092) medium containing 10% FBS (Gibco catalog number 10099-141C), respectively. During the determination, Vcap cells were replaced with DMEM medium containing 5% FBS and 0.1 nM R1881 (Sigma catalog number R0908).
as §1, with “Vcap” for “LNcap”, “1200” for “400”, “shake” for “shook”, “mix” for “mixed”, “though” for “with”
as §2, with “from” for “from the”

androgen receptor = target: T1, androgen receptor (Homo sapiens, UniProt P10275, T878A); assay: In-Cell-Western determination of androgen receptor degradation in LnCaP cells; assay type: cell-based; details: for DC50: concentration for half of the maximal degradation of AR in LnCaP cells
T1 construct: endogenous in cells; host or cells: LNCaP cells
T1 sequence (P10275 1-920 T878A): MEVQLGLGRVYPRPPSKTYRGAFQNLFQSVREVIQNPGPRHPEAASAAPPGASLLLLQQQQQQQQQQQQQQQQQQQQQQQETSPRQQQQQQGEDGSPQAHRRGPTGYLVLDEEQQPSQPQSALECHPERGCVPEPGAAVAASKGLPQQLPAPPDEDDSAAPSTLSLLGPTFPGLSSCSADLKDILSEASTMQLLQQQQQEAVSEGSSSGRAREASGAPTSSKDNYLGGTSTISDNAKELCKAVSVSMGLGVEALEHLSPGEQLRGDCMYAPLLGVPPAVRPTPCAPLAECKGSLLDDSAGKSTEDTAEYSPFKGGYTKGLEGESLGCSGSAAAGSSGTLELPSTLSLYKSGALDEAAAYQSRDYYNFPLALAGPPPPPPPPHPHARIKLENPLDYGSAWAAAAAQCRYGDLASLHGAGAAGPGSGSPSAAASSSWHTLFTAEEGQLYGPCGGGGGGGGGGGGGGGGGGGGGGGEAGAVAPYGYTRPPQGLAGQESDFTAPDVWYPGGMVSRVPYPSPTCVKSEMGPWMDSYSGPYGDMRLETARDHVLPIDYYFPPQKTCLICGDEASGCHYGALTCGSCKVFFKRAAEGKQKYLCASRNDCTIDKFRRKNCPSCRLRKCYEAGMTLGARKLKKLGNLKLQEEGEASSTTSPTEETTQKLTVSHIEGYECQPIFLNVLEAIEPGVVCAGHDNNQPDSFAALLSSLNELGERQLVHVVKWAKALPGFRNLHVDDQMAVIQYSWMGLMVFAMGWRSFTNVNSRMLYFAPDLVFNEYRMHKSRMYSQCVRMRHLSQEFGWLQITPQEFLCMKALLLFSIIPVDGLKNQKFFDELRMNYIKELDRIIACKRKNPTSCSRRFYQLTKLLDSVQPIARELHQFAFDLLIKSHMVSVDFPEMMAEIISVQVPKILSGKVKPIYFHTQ
Description: The determination evaluated the properties of the compounds in Lncap cells. Intracellular androgen receptor was determined by In-Cell-Western according to the determination steps described below.
In poly-D-Lysin pretreated 96-well cell culture plate (Corning 3599), LNcap cells were divided into 100 μL/well volume, and inoculated with 30,000 cells/well in LNcap cell assay medium [DMEM containing phenol red (Gibco catalog number: 11995065); fetal bovine serum FBS (Gibco catalog number: 10099141C)]. Cells were cultured for at least two days.
1. First treated cells with compound. Compounds were gradient diluted with DMSO and cell culture medium, so that DMSO contained in cell culture plates was diluted to 0.5% —polypropylene plates were used according to the following protocol: (1)(i) 200× stock plate in DMSO was prepared; (ii) 10 mM stock solution was diluted 1:4 with DMSO (10 μL stock solution+40 μL DMSO)=2000 μM, then entered into row 2; (iii) 1:4 (10 μL protac+40 μL DMSO) gradient dilution was performed from row 2 to row 9, and row 1 was reserved for […] reference compound and row 10 for DMSO. (iv) A total of 8 concentrations (final concentrations on the 200× plate were 2000 μM, 400 μM and 80 μM, etc.). (2) (i) 3× stock solution was prepared in the medium. (ii) 3 μL of 200× stock solution was transferred to 197 µL of culture medium (using 12-channel pipette, from line 1 to line 10), i.e. 3× stock solution plate. (iii) The stock solution plate was mixed evenly. (3) (i) The culture medium of […] cells was replaced with fresh culture medium, 100 μL volume culture medium. (ii) The well-mixed 3× stock solution was transferred to the cell culture plate (using a 12-channel pipette, and 50 μL of stock solution was transferred from line 1 to line 10). (iii) Cells were cultured for 24 hours.
2. The expression level of intracellular androgen receptor after compound treatment was […] and determined according to the following method.
(1)(i) Equal volume of 8% paraformaldehyde was added to the cell culture plate for cell fixation. The fixing solution in the cell plate was discarded and washed three times with PBS. (ii) Triton solution (1:1000 dilution of the stock solution) was prepared. The solution in the cell plate was discarded, and 200 μL of Triton diluent was added into each well. (iii) 2×blocking solution (1:4 dilution of 10×blocking stock solution) was prepared. The solution in the cell plate was discarded, and 100 μL of 2×blocking solution was added into each well. (iv) Primary antibody solution (Androgen receptor Rabbbit mAb, Cell Signaling Technology catalog number: 5153; 1:1000 dilution) was prepared. The solution in the cell plate was discarded, 100 μL volume of primary antibody diluent was added to each well, and incubated at 4° C. overnight. (v) The primary antibody solution was discarded and the cell plate was washed with 1×Wash buffer. (vi) Secondary antibody solution (GOAT Antirabbit IgG (H+L), HRP, Thermo catalog number: 31460; 1:5000 dilution) was prepared, and 100 μL volume of secondary antibody dilution was added to each well for incubation. (vii) The secondary antibody solution in the cell plate was discarded and the cell plate was washed with 1×Wash buffer. (viii) TMB chromogenic solution (BD catalog number: 550534) was prepared, and 100 μL chromogenic solution was added into each well. (ix) 50 μL volume of stop solution (BD catalog number: 550534) was added to each well. (x) The absorption values at OD 450 nm and 570 nm were read though EnVision. (2) (i) Normalized analysis was performed on the number of cells in each well. The solution in the cell plate was discarded, and washed with wash buffer for three times. (ii) Janus dilution (1:3 dilution) was prepared. (iii) 50 μL volume diluent was added to each well for incubation. (iv) The solution in the plate was discarded and washed with deionized water. […]

[1] = In vivo pharmacokinetics in mice, intravenous injection and oral administration; parameters: species or system mouse; details: male CD1 mice
Description: In this experimental example, in vivo pharmacokinetics in mice were evaluated by intravenous injection and oral administration.
Experimental methods and conditions: Male CD1 mice, aged 6-8 weeks, all animals were free access to food and water, and were given a single dose of the compound to be tested at 1 mg/Kg by intravenous injection (solvent 5% DMSO/15% Solutol/80% Saline), at 5 min, 15 min, 30 min, 1 hr, 2 hr, 4 hr, 8 hr, 24 hr, 48 h after drug administration, or oral gavage administration of 10 mg/kg (solvent 5% DMSO/10% Solutol/85% Saline), at 15 min, 30 min, 1 hr, 2 hr, 4 hr, 6 h, 8 hr, 24 hr, 48 h after administration, blood was collected from the orbit, no less than 50 μL for each sample, heparin sodium was used for anticoagulation, and then placed on ice after collection, and centrifuged within 1 hour to separate the plasma for testing. The plasma concentration of the drug was detected by liquid tandem mass spectrometry (LC/MS/MS), and the pharmacokinetic parameters were calculated by Phoenix WinNonlin software.

[2] = LnCaP cell proliferation, 6 days, read-out: IC50
[3] = maximum degree of inhibition of LnCaP cell proliferation, 6 days, read-out: Emax
[4] = mouse, intravenous administration 1 mg/kg, plasma
[5] = mouse, oral administration 10 mg/kg, plasma

CC1(C)C(=O)N(c2ccc(C#N)c(Cl)c2)c2ccc(-c3ccc(N4CC(F)(CN5CCN(c6ccc7c(c6)C(=O)N(C6CCC(=O)NC6=O)C7=O)CC5)C4)cc3)cc21 (centres unmarked) [Compound 5]
pIC50 (LNcap FGC cells; [2]): 7.02 | Emax (LNcap FGC cells; [3]): 93%

COc1cc(N2C(=O)C(C)(C)c3cc(-c4ccc(N5CC(CN6CCN(c7ccc8c(c7)C(=O)N(C7CCC(=O)NC7=O)C8=O)CC6)C5)cc4)ccc32)ccc1C#N (centres unmarked) [Compound 2]
pIC50 (LNcap FGC cells; [2]): 7.05 | Emax (LNcap FGC cells; [3]): 98%

CC1(C)C(=O)N(c2ccc(C#N)c(Cl)c2)c2ccc(-c3cnc(N4CC(CN5CCN(c6ccc7c(c6)C(=O)N(C6CCC(=O)NC6=O)C7=O)CC5)C4)cn3)cc21 (centres unmarked) [Compound 10]
pIC50 (VCap cells; VCaP cell proliferation, 6 days, 5% FBS and 0.1 nM R1881, read-out: IC50): 7.30 | Emax (VCap cells; maximum degree of inhibition of VCaP cell proliferation, 6 days, 5% FBS and 0.1 nM R1881, read-out: Emax): 98% | pIC50 (LNcap FGC cells; [2]): 7.40 | Emax (LNcap FGC cells; [3]): 100%

CC1(C)C(=O)N(c2ccc(C#N)c(Cl)c2)c2ccc(-c3ccc(N4CC(CN5CCN(c6ccc7c(c6)CN(C6CCC(=O)NC6=O)C7=O)CC5)C4)cc3)cc21 (centres unmarked) [Compound 4]
Dmax (androgen receptor; LNCaP): 91% | DC50 (androgen receptor; 24 hours treatment): 108 nM

CC1(C)C(=O)N(c2ccc(C#N)c(Cl)c2)c2ccc(-c3ccc(N4CC(CN5CCN(c6cc7c(cc6F)C(=O)N(C6CCC(=O)NC6=O)C7=O)CC5)C4)cc3)cc21 (centres unmarked) [Compound 7]
Dmax (androgen receptor; LNCaP): 75% | DC50 (androgen receptor; 24 hours treatment): 72.1 nM

CC1(C)C(=O)N(c2ccc(C#N)c(Cl)c2)c2ccc(-c3ncc(N4CC(CN5CCN(c6ccc7c(c6)C(=O)N(C6CCC(=O)NC6=O)C7=O)CC5)C4)cn3)cc21 (centres unmarked) [Compound 6]
Emax (VCap cells; VCaP): 94% | pIC50 (VCap cells; VCaP): 7.09 | F ([1]; oral administration 10 mg/kg vs intravenous 1 mg/kg): 71.3% | AUC(0-inf) [1, 4]: 9860 ng·h/mL | clearance [1, 4]: 1.69 mL/min/kg | half-life [1, 4]: 11.2 h | AUC(0-inf) [1, 5]: 70300 ng·h/mL | Cmax [1, 5]: 2920 ng/mL | half-life [1, 5]: 11.2 h | Emax (LNcap FGC cells; LNCaP): 99% | pIC50 (LNcap FGC cells; LNCaP): 7.12

CC1(C)C(=O)N(c2ccc(C#N)c(Cl)c2)c2ccc(-c3ccc(-c4cnn(CCCN5CCN(c6ccc7c(c6)C(=O)N(C6CCC(=O)NC6=O)C7=O)CC5)c4)cc3)cc21 (centres unmarked) [Compound 13]
Dmax (androgen receptor; LNCaP): 100% | DC50 (androgen receptor; 24 hours treatment): 73.4 nM

CC1(C)C(=O)N(c2cnc(C#N)c(Cl)c2)c2ccc(-c3ccc(N4CC(CN5CCN(c6ccc7c(c6)C(=O)N(C6CCC(=O)NC6=O)C7=O)CC5)C4)cc3)cc21 (centres unmarked) [Compound 11]
DC50 (androgen receptor; 24 hours treatment, read-out: DC50): 74.7 nM | Dmax (androgen receptor; maximum degradation of AR in LnCaP cells, 24 hours treatment, read-out: Dmax): 74%

CC1(C)C(=O)N(c2ccc(C#N)c(Cl)c2)c2ccc(-c3ccc(-c4cnn(CCN5CCN(c6ccc7c(c6)C(=O)N(C6CCC(=O)NC6=O)C7=O)CC5)c4)cc3)cc21 (centres unmarked) [Compound 12]
Dmax (androgen receptor; LNCaP): 75% | DC50 (androgen receptor; 24 hours treatment): 78.8 nM | Emax (LNcap FGC cells; LNCaP): 68% | pIC50 (LNcap FGC cells; LNCaP): 7.09

CC1(C)C(=O)N(c2ccc(C#N)c(C(F)(F)F)c2)c2ccc(-c3ccc(N4CC(CN5CCN(c6ccc7c(c6)C(=O)N(C6CCC(=O)NC6=O)C7=O)CC5)C4)nc3F)cc21 (centres unmarked) [Compound 15]
Emax (VCap cells; VCaP): 92% | pIC50 (VCap cells; VCaP): 7.09 | Dmax (androgen receptor; LNCaP): 67% | DC50 (androgen receptor; 24 hours treatment): 3.49 nM
